The record followed here is US5925769A, “Acetylenic 1,5-diarylpyrazoles as antiinflammatory agents” (Ortho Pharmaceutical, Corp., priority 1998, dated 1999).

The target of experiment [1] is T1, CO (Rattus norvegicus, UniProt Q63921).
T1 construct: the supernatant was saved as the source of enzymes; endogenous in cells; host or cells: RBL-1 (rat basophilic leukemia) cells
T1 sequence (Q63921 27-602): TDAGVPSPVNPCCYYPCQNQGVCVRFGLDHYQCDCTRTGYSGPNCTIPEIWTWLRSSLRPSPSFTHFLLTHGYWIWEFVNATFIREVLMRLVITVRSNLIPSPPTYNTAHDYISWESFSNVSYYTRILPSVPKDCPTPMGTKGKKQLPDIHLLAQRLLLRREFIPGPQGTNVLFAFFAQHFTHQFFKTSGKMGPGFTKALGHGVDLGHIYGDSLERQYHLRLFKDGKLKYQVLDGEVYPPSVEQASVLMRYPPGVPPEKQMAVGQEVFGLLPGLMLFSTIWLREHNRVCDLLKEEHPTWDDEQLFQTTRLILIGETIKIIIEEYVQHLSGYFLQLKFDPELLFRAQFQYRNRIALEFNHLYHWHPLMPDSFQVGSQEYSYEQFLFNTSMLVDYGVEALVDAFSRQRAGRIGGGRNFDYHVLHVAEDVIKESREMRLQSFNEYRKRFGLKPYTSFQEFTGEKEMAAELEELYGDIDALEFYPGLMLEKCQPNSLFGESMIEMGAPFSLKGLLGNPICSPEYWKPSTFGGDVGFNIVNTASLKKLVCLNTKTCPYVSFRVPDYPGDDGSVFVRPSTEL
Briefly: Procedure III: CO (PgD2) in intact RBL-1 cells. The following applies: calcium ionophore A 23187, read-out: Proc. III CO IC50. Type of experiment: cell-based. How it is done: (§1) The IC50 was determined using a curve fit in Cricket Graph (Computer Associated), which provided the equation of the regressed line used in the calculation.
(§2) In Procedure III, the ability to inhibit 5-LO and CO in intact RBL-1 cells was also evaluated. […] Cells were collected by centrifugation, washed once in HBSS, and resuspended at a concentration of 1×10^5 cells/mL. Cells were incubated in the presence of vehicle or drug then centrifuged at 800×g for 10 minutes at 4° C. The supernatant was removed by aspiration and the cells were resuspended in 0.5 mL of HBSS. […] The conversion of AA to 5-LO products was initiated by the addition of 10 μL (50 μCi) of 1-^14 C-AA. Products were isolated by acidification and extraction, followed by thin layer chromatography analysis as described above. Radioactive areas corresponding to authentic 5-LO (5-HETE) and CO (PgD2) products were quantitated by the Bioscan 2000 Imaging System and the IC50 was calculated as above.

Experiment [2] concerns the target T2, 5-LO (Rattus norvegicus, UniProt P12527).
T2 construct: the supernatant was saved as the source of enzymes; endogenous in cells; host or cells: RBL-1 (rat basophilic leukemia) cells
T2 sequence (P12527 1-673): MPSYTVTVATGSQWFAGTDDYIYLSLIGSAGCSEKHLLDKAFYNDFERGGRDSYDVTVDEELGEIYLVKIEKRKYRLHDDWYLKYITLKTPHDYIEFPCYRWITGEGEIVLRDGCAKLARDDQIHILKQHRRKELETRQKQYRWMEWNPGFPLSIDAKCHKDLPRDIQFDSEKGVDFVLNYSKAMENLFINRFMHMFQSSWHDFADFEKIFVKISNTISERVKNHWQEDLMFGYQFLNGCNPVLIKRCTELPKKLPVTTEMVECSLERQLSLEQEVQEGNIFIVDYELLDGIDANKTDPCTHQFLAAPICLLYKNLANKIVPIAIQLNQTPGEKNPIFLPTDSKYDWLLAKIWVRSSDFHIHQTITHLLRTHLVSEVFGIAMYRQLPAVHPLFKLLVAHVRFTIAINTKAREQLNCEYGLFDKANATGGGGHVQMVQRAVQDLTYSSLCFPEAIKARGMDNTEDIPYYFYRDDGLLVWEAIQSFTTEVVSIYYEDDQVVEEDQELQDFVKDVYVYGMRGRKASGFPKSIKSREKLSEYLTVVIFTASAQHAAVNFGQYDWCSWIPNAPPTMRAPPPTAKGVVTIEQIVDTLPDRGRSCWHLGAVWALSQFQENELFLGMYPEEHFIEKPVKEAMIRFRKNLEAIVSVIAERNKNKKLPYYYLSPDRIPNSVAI
Nature of the experiment: Procedure II: 5-LO activity (5-HETE) in broken RBL-1 cells (homogenate supernatant). Type of experiment: biochemical. To be noted: RBL-1 broken cell supernatant; for IC50: read-out: Proc. II 5-LO IC50; for inhibition at 10 µM: 20 min, @ 10 .quadrature.M, read-out: Proc. II 5-LO % inhibition. How it is done:
(§3) Procedure II was used to assess LO and CO activity. Rat basophilic leukemia cells (RBL-1; 5×10^7 viable cells/mL) were disrupted by homogenization on ice (four 20 sec bursts) with a Brinkman polytron. […] The homogenate was then centrifuged at 9,220×g for 48 minutes at 4° C. The pellet was discarded and the supernatant was saved as the source of enzymes. The supernatant was pre-incubated for five minutes at 37° C. in the presence of 2 mM of CaCl2 and compound or vehicle (1% DMSO). The conversion of AA into products by CO and LO was initiated by adding 10 μL (50 μCi) of 1-^14 C-AA to each tube and incubated at 37° C. for 20 minutes. The reaction was stopped by adjusting the pH of each sample to 3 to 3.5 with 2M formic acid. Samples were extracted with three volumes of chloroform to isolate the products of 5-LO formed during the reaction. Fractions were dried under nitrogen, then resuspended in 40 μL of chloroform and spotted onto silica gel HL plates. The plates were developed in A-9 solvent. The dried plates were analyzed using a Bioscan Imaging TLC scanner to determine the percentage of radiolabelled AA converted to 5-HETE (LO product) in each sample. The percentage of inhibition was calculated by:
(§4) [1-(5-HETE test)]/5-HETE control×100=% inhibition
as §1

Experiment [3] concerns the target T1, CO. Briefly: Procedure II: CO activity in broken RBL-1 cells (homogenate supernatant). To be noted: RBL-1 broken cell supernatant; for IC50: read-out: Proc. II CO IC50; for inhibition at 10 µM: 20 min, @ 10 .quadrature.M, read-out: Proc. II CO % inhibition. In kind it is biochemical. How it is done: as §3, §4, §1
The target of experiment [4] is T2, 5-LO. Nature of the experiment: Procedure III: 5-LO (5-HETE) in intact RBL-1 cells. Type of experiment: cell-based. The following applies: calcium ionophore A 23187, read-out: Proc. III 5-LO IC50. As for the experimental part:
as §1, §2

The target in experiment [5] is T3, Sheep seminal vesicle (SSV) cyclooxygenase (Ovis aries, UniProt P05979).
T3 construct: Sheep seminal vesicle (SSV) cyclooxygenase (95% pure); purchased Biomol (Plymouth Meeting, PA); host or cells: sheep seminal vesicle
T3 sequence (P05979 25-600): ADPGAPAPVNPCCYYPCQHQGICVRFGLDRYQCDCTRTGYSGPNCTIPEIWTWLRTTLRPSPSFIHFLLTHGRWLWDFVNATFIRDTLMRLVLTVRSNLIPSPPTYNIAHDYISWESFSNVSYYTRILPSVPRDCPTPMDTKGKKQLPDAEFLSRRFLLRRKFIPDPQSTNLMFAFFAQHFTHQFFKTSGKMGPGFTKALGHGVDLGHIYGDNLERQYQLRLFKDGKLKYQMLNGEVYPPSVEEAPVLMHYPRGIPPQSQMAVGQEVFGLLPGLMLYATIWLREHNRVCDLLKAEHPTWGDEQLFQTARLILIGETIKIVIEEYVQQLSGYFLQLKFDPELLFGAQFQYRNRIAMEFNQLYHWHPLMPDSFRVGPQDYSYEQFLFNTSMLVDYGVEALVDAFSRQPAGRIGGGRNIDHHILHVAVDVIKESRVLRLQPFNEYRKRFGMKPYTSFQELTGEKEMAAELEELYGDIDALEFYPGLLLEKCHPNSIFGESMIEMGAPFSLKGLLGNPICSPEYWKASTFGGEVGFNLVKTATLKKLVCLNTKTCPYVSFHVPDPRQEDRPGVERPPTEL
Briefly: Procedure I: inhibition of sheep seminal vesicle (SSV) cyclooxygenase. To be noted: SSV cyclooxygenase; for IC50: read-out: Proc. I IC50. Type of experiment: biochemical. How it is done:
Procedure I was used to determine the ability of the compounds to inhibit cyclooxygenase. […] The enzyme was divided into 200 μL aliquots, snap frozen with liquid N2, and stored at -70° C. until immediately prior to use. […] The tubes were mixed on a vortex shaker, preincubated for 5 min at 37° C. prior to the initiation of the reaction. The reaction was started by the addition of [^14 C]-arachidonic acid (1-^14 C-AA, Amersham, Arlington Heights, Ill.) in 10 μL of methanol. Tubes were again vortexed and incubated in a water bath for 20 minutes after which the tubes were removed and the reaction stopped by acidification with the addition of 1 mL 2M formic acid. Lipophilic products were extracted with 3 mL chloroform and concentrated to dryness under N2. Each pellet was reconstituted with 40 μL of chloroform and spotted on a Whatman Silicon thin-layer chromatography plate and developed in a chromatography tank containing A-9 solvent (11:5:2:1 V:V:VV, ethyl acetate:trimethyl-pentane:acetic acid:double distilled-H2 O). Radioactive cyclooxygenase products (prostaglandin D2, prostaglandin E2, etc.) were measured using a Bioscan System 200 Imaging Scanner. Inhibition of enzyme activity was calculated by comparing the areas under the curve produced in the presence or absence of test compound.

In general, IC50 refers to the concentration at which inhibition is half-maximal. As for `COc1ccc(-n2nc(C#CC(C)N(O)C(=O)C(C)C)cc2-c2ccc(C)cc2)cc1` (centres unmarked) [Cpd 20, N-isobutyryl-N-(1-(1-(4-methoxyphenyl) -5(4-methylphenyl)pyrazol-3-yl)-1-butyn-3-yl)hydroxylamine], the IC50 came to 90 nM in experiment [1]; 100 nM in experiment [2]; 40 nM in experiment [3]; 5600 nM in experiment [4]; 390 nM in experiment [5].

As a reminder, the inhibition is how much of the control response was suppressed. With `COc1ccc(-n2nc(C#CC(C)N(O)C(=O)CCl)cc2-c2ccc(C)cc2)cc1` (centres unmarked) [Cpd 21, N-Chloroacetyl-N-(1-(1-(4-methoxyphenyl)-5-(4-methylphenyl)pyrazol-3-yl)-1-butyn-3-yl)hydroxylamine], the IC50 in experiment [1] turned out to be 360 nM; in experiment [4], 23600 nM; in experiment [5], 1200 nM. Moreover, the inhibition at 10 µM in experiment [2] and in experiment [3] was 100% throughout.

On to `CCOC(=O)CCC(=O)N(O)C(C)C#Cc1cc(-c2ccc(C)cc2)n(-c2ccc(OC)cc2)n1` (centres unmarked) [Cpd 22], for which the IC50 turned out to be 10000 nM in experiment [1], 10100 nM in experiment [4] and 2930 nM in experiment [5]. Also, the inhibition at 10 µM in experiment [2] was 97%; in experiment [3], 100%.

Turning to `COc1ccc(-n2nc(C#CC(C)N(O)C(=O)C(F)(F)F)cc2-c2ccc(C)cc2)cc1` (centres unmarked) [Cpd 23, N-trifluoroacetyl-N-(1-(1-(4-methoxyphenyl)-5-(4-methylphenyl)pyrazol-3-yl)-1-butyn-3-yl)hydroxylamine], the IC50 came out at 190 nM in experiment [1]; 1660 nM in experiment [2]; 50 nM in experiment [3]; 23500 nM in experiment [4]; 420 nM in experiment [5].

In the case of `CCOC(=O)C(=O)N(O)C(C)C#Cc1cc(-c2ccc(C)cc2)n(-c2ccc(OC)cc2)n1` (centres unmarked) [Cpd 24], the IC50 came to 3400 nM in experiment [1] and 8500 nM in experiment [4]. For the same compound, the inhibition at 10 µM in experiment [2] was determined as 71%; in experiment [3] it was 50%; in experiment [5] (20 min, @ 10 .quadrature.M, read-out: Proc. I % inhibition) it was 66%.

Turning to `COc1ccc(-n2nc(C#CC(C)N(O)C(=O)c3cccnc3)cc2-c2ccc(C)cc2)cc1` (centres unmarked) [Cpd 26], the IC50 in experiment [1] was 11500 nM; in experiment [4], 25400 nM; in experiment [5], 6000 nM. The inhibition at 10 µM was 88% in experiment [2] and 54% in experiment [3].

On to `COC(=O)N(O)C(C)C#Cc1cc(-c2ccc(C)cc2)n(-c2ccc(OC)cc2)n1` (centres unmarked) [Cpd 27], for which the IC50 was 490 nM in experiment [1]; 280 nM in experiment [2]; 140 nM in experiment [3]; 7100 nM in experiment [4]; 530 nM in experiment [5].

`CCC(C#Cc1cc(-c2ccc(C)cc2)n(-c2ccc(OC)cc2)n1)N(O)C(C)=O` (centres unmarked) [Cpd 28, N-acetyl-N-(1-(1-(4-methoxyphenyl)-5-(4-methylphenyl)pyrazol-3-yl)-1-pentyn-3-yl)hydroxylamine]: the IC50 was determined as 220 nM in experiment [1]; 70 nM in experiment [2]; 10 nM in experiment [3]; 10700 nM in experiment [4]; 430 nM in experiment [5].

As for `CCc1ccc(-c2cc(C#CC(C)N(O)C(C)=O)nn2-c2ccc(OC)cc2)cc1` (centres unmarked) [Cpd 29, N-acetyl-N-(1-(5-(4-ethylphenyl)-1-(4-methoxyphenyl)pyrazol-3-yl)-1-butyn-3-yl)hydroxylamine], the IC50 in experiment [1] turned out to be 340 nM; in experiment [2], 270 nM; in experiment [3] it was 60 nM; in experiment [4] it was 11900 nM; in experiment [5] it was 2510 nM.

For the compound `CCc1ccc(-c2cc(C#CC(C)N(O)C(=O)C(C)C)nn2-c2ccc(OC)cc2)cc1` (centres unmarked) [Cpd 30, N-isobutyryl-N-(1-(5-(4-ethylphenyl)-1-(4-methoxyphenyl)pyrazol-3-yl)-1-butyn-3-yl)hydroxylamine], the IC50 in experiment [1] turned out to be 180 nM; in experiment [4] it was 13100 nM; in experiment [5], 590 nM. Also, the values for the inhibition at 10 µM in experiment [2] and in experiment [3] were 93% and 73%, respectively.
